Results reported in US6403111B1, “Method for preparing aqueous phytosphingosine solution” (Doosan Corporation, priority 2000, dated 2002).

Key:
[1] = Solubility of phytosphingosine in solvents; assay type: physicochemical; details: solvent: mixture of water, lactic acid and a willow bark extract
[2] = cited from earlier work

Amount solubilized to give a completely clear solution [1]: 5-10 weight %
SMILES: CCCCCCCCCCCCCC[C@@H](O)[C@@H](O)[C@@H](N)CO [Phytosphingosine, phytosphingosine]
Solubility in isocetyl alcohol ([2]; isocetyl alcohol): 1 wt %
Solubility in water ([2]; water): not soluble in water at all
